Measurements: article PMC11085086, “Microwave-Assisted Atom Transfer Radical Cyclization in the Synthesis of 3,3-Dichloro-γ- and δ-Lactams from N-Alkenyl-Tethered Trichloroacetamides Catalyzed by RuCl2(PPh3)3 and Their Cytotoxic Evaluation” (Molecules, 2024)

Assays:
Assay type in all cases: cell-based
[1] = Hemolysis assay with human erythrocyte suspension; conditions: human, washed human erythrocyte suspension, PBS pH 7.4, read-out: degree of hemolysis
Protocol: (§1) Human blood samples were obtained from the Banc de Sang i Teixits de Barcelona (Spain) from the Catalan Department of Health. Blood was deposited in tubes with the anticoagulant EDTA-K3. Blood samples were centrifuged at 3000 rpm and 4 °C for 10 min (Megafuge 2.0 R. Heraeus Instruments, Hanau, Germany) to induce sedimentation. Plasma was extracted with a Pasteur pipette. Next, the residual pellet was washed with PBS at pH 7.4. This procedure was repeated three times to remove residual leukocytes and platelets and to concentrate the erythrocytes. Following the last wash, the erythrocyte suspension was diluted (1:1) in PBS at pH 7.4 to obtain a suitable erythrocyte suspension (cell density of 8 × 10^9 cell/mL).
(§2) The hemolysis assay determined the capability of different compounds to induce the hemolysis of the erythrocyte membrane. Stock solutions of each compound at 1 mg/mL in PBS at pH 7.4 were prepared. Different volumes (10–80 μL) were placed in polystyrene tubes, and an aliquot of 25 µL of the erythrocyte suspensions was added to each tube. The final volume was 1 mL. The tubes were incubated at room temperature under rotatory conditions. Then, the tubes were centrifuged at 10,000 rpm for 5 min. The supernatants’ absorbance at 540 nm (Shimadzu UV-160A, Shimadzu, Duisburg, Germany) was compared with that of the positive (erythrocytes hemolyzed with distilled water) and negative (erythrocyte suspension in PBS at pH 7.4.) controls.
(§3) The degree of hemolysis was determined using the following equation:Hemolysis (%) = 100 × (Abs − Abs0)/(Abs100 − Abs0) where Abs, Abs0 and Abs100 are the absorbance of the test samples, of the suspension treated with isotonic phosphate–buffered saline (PBS) and of the suspension of complete hemolysis treated with distilled water, respectively.

[2] = tested on: human erythrocytes; experiment: Hemolysis assay with human erythrocyte suspension; conditions: 80 µg/mL, PBS pH 7.4
Protocol: as §1, §2, §3

[3] = tested on: murine Swiss albino fibroblasts (3T3); experiment: Cell viability assay, MTT endpoint, 3T3; conditions: Mus musculus, Fibroblast, 3T3, 24 h incubation, 10–250 µg/mL
Protocol: (§4) The murine Swiss albino fibroblasts (3T3), the human breast adenocarcinoma (MCF-7), the human epithelial carcinoma (HeLa) and the squamous cell carcinoma (A431) cell lines were obtained from Celltec UB. Cells were grown in DMEM medium (4.5 g/L glucose) supplemented with 10% (v/v) FBS, 2 mM L-glutamine, 100 U/mL penicillin and 100 µg/mL streptomycin at 37 °C, 5% CO2. Cells were routinely cultured in 75 cm^2 culture flasks and were trypsinized using trypsin–EDTA when the cells reached approximately 80% confluence. The trypan blue assay, which allows for a direct identification and enumeration of the live (unstained) and dead (blue) cells in the cell population, was used to evaluate the viability of the cells in the cell suspension obtained.
(§5) 3T3 (1 × 10^5 cells/mL), A431, HeLa and MCF-7 cells (5 × 10^4 cells/mL) were grown at defined densities in the 60 central wells of a 96-well plate. Cells were incubated for 24 h in 5% CO2 at 37 °C. Then, the spent medium was removed, and cells were incubated for 24 h with their corresponding compound solutions (1 mg/mL) previously diluted in a minimum amount of DMF (dimethylformamide) and then in DMEM medium supplemented with 5% FBS (100 µL) at the required concentration range (10–250 µg/mL). The viability of the cells upon incubation with the lactam derivatives was assayed using 2 different endpoints: NRU and MTT.
(§6) Only living cells can reduce the yellow tetrazolium salt 3-(4,5-dimethyl-2-thiazolyl)-2,5-diphenyltetrazolium bromide (MTT) to insoluble purple formazan crystals. After a 24 h incubation of the cells with their corresponding NPs, the medium was removed and 100 µL of MTT (Sigma-Aldrich, St. Louis, USA) in PBS (5 mg/mL) diluted 1:10 in culture medium without phenol red and without FBS (Lonza, Verviers, Belgium) was added to the cells. After 3 h of incubation, the medium was removed. Thereafter, 100 µL of DMSO (Sigma-Aldrich, St. Louis, MO, USA) was added to each well to dissolve the purple formazan crystals. Agitation and determination of the absorbance of the extracted solution were performed under the same conditions as described in NRU Assay section. Finally, the effect of each treatment was calculated as the percentage of tetrazolium salt’s reduction by viable cells relative to control cells (cells without any treatment).
(§7) The corresponding half-maximal inhibitory concentration (IC50) values for the different formulations as a function of the cell line and endpoint were determined from the fitting of concentration-dependent viability curves. The corresponding selectivity indexes toward tumoral cells were calculated using the following ratio: SI = IC50 (non-tumoral cell line)/IC50 (tumoral cell line) where 3T3 fibroblasts were used as close representative cells under non-tumoral conditions. Moreover, pseudo selectivity indexes toward tumoral cells were calculated considering the discrete cellular responses at the maximum tested concentration (250 µg/mL).

[4] = tested on: squamous cell carcinoma (A431) cell line; experiment: Cell viability assay, MTT endpoint, A431; conditions: for SI250 (selective toxicity at 250 µg/mL): A431 compared to 3T3, 250 µg/mL, 24 h; for IC50: Homo sapiens, A-431, 24 h, A431, 24 h incubation, 10–250 µg/mL
Protocol: as §4, §5, §6, §7

[5] = tested on: human epithelial carcinoma (HeLa) cell line; experiment: Cell viability assay, MTT endpoint, HeLa; conditions: HeLa; for IC50: Homo sapiens, 24 h, 24 h incubation, 10–250 µg/mL
Protocol: as §4, §5, §6, §7

[6] = tested on: human breast adenocarcinoma (MCF-7) cell line; experiment: Cell viability assay, MTT endpoint, MCF-7; conditions: for IC50: Homo sapiens, MCF7, 24 h incubation, 10–250 µg/mL
Protocol: as §4, §5, §6, §7

[7] = tested on: murine Swiss albino fibroblasts (3T3); experiment: Cell viability assay, NRU endpoint, 3T3; conditions: Mus musculus, Fibroblast, 3T3, 24 h incubation, 10–250 µg/mL
Protocol: as §4, §5
(§8) The neutral red uptake (NRU) assay is based on the accumulation of dye in the lysosomes of viable cells. After the cells were incubated for 24 h with the corresponding systems, the medium was removed, and the solutions were incubated with the NR dye (Sigma-Aldrich, St. Louis, MO, USA) solution (50 µg/mL) dissolved in the medium, without FBS and without phenol red (Lonza, Verviers, Belgium), for 3 h. Cells were then washed with sterile PBS, followed by the addition of 100 µL of a solution containing 50% absolute ethanol and 1% acetic acid in distilled water to extract the dye. To promote the total dissolution of the dye, plates were placed in a microtiter-plate shaker for 5 min at room temperature. The absorbance of the resulting solutions was measured at 550 nm (Bio-Rad 550 microplate reader, Bio-Rad California, Hercules, CA, USA). Finally, the effect of each treatment was calculated as the percentage of dye uptake by viable cells relative to the control cells (cells without any treatment).
as §7

[8] = tested on: squamous cell carcinoma (A431) cell line; experiment: Cell viability assay, NRU endpoint, A431; conditions: for IC50: Homo sapiens, A-431, 24 h, A431, 24 h incubation, 10–250 µg/mL; for SI250 (selective toxicity at 250 µg/mL): A431 compared to 3T3, 250 µg/mL, 24 h
Protocol: as §4, §5, §8, §7

[9] = tested on: human epithelial carcinoma (HeLa) cell line; experiment: Cell viability assay, NRU endpoint, HeLa; conditions: 24 h incubation, 10–250 µg/mL
Protocol: as §4, §5, §8, §7

[10] = tested on: human breast adenocarcinoma (MCF-7) cell line; experiment: Cell viability assay, NRU endpoint, MCF-7; conditions: for IC50: Homo sapiens, MCF7, 24 h incubation, 10–250 µg/mL; for SI250 (selective toxicity at 250 µg/mL): MCF-7 compared to 3T3, 250 µg/mL, 24 h
Protocol: as §4, §5, §8, §7

[11] = Cell viability assay, MTT endpoint, cell line not specified; conditions: under discrete conditions, up to 250 µg/mL, read-out: minimum cell viability values
Protocol: as §4
3T3 (1 × 10^5 cells/mL), A431, HeLa and MCF-7 cells (5 × 10^4 cells/mL) were grown at defined densities in the 60 central wells of a 96-well plate. […]
Only living cells can reduce the yellow tetrazolium salt 3-(4,5-dimethyl-2-thiazolyl)-2,5-diphenyltetrazolium bromide (MTT) to insoluble purple formazan crystals. […] Agitation and determination of the absorbance of the extracted solution were performed under the same conditions as described in NRU Assay section. Finally, the effect of each treatment was calculated as the percentage of tetrazolium salt’s reduction by viable cells relative to control cells (cells without any treatment).

[12] = Cell viability assay, NRU endpoint, cell line not specified; conditions: up to 250 µg/mL, read-out: minimum cell viability values
Protocol: as §4, §5, §8

[13] = Cell viability assay, MTT endpoint, A431; conditions: human, A431 squamous cell carcinoma cells, A431, highest assayed concentration 250 µg/mL, 24 h
Protocol: as §4, §5, §6, §7

O=C1NCC(CCl)C1(Cl)Cl (stereo not drawn) [2b, 3,3-Dichloro-4-(chloromethyl)pyrrolidin-2-one]
hemolysis at 10 µg/mL [1]: 0.02% | degree of hemolysis [2]: remained stable | IC50 [3]: > 250 µg/mL | SI250 (selective toxicity at 250 µg/mL) [4]: 1.1 | IC50 [4]: > 250 µg/mL | IC50 [5]: > 250 µg/mL | IC50 ([6]; MTT): > 250 µg/mL | IC50 [7]: > 250 µg/mL | IC50 [8]: > 250 µg/mL | IC50 [9]: > 250 µg/mL | IC50 [10]: > 250 µg/mL | viability at 24 h [11]: 60 to 70% | viability at 24 h [12]: 80 to 85%

O=C1N(c2ccccc2)CC(CCl)C1(Cl)Cl (stereo not drawn) [2d, 3,3-Dichloro-4-(chloromethyl)-1-phenylpyrrolidin-2-one]
hemolysis at 10 µg/mL [1]: 0.005% | hemolysis at 80 µg/mL [1]: 0.1% | IC50 [3]: > 250 µg/mL | viability at 24 h, 250 µg/mL [13]: 50% | SI250 (selective toxicity at 250 µg/mL) [4]: 1.4 | IC50 [5]: > 250 µg/mL | IC50 ([6]; MTT): > 250 µg/mL | IC50 [7]: > 250 µg/mL | IC50 [8]: > 250 µg/mL | IC50 [9]: > 250 µg/mL | IC50 [10]: > 250 µg/mL | SI250 (selective toxicity at 250 µg/mL) [10]: one | viability at 24 h [12]: 80 to 85%

CC(C)(C)N1CCC(CCl)C(Cl)(Cl)C1=O (stereo not drawn) [2i, 1-(tert-Butyl)-3,3-dichloro-4-(chloromethyl)piperidin-2-one]
hemolysis at 10 µg/mL [1]: 0.003% | hemolysis at 80 µg/mL [1]: ~0.07% | IC50 [3]: > 250 µg/mL | SI250 (selective toxicity at 250 µg/mL) [4]: 1.1 | IC50 [4]: > 250 µg/mL | IC50 [5]: > 250 µg/mL | IC50 ([6]; MTT): > 250 µg/mL | SI250 (selective toxicity at 250 µg/mL) ([6]; MTT, MCF-7 compared to 3T3, 250 µg/mL, 24 h): one | IC50 [7]: > 250 µg/mL | SI250 (selective toxicity at 250 µg/mL) [8]: 1.1 | IC50 [8]: > 250 µg/mL | IC50 [9]: > 250 µg/mL | IC50 [10]: > 250 µg/mL | SI250 (selective toxicity at 250 µg/mL) [10]: one | viability at 24 h [12]: 70%

O=C1CCC(N2CC(CCl)C(Cl)(Cl)C2=O)CC1 (stereo not drawn) [2p]
hemolysis at 10 µg/mL [1]: 0.005% | hemolysis at 80 µg/mL [1]: ~0.07% | IC50 [3]: > 250 µg/mL | IC50 [4]: > 250 µg/mL | effect on proliferation of tumor cells ([5]; under the assayed conditions): could promote the proliferation | IC50 [5]: > 250 µg/mL | IC50 ([6]; MTT): > 250 µg/mL | effect on proliferation of tumor cells ([6]; MCF-7, MTT, under the assayed conditions): could promote the proliferation | IC50 [7]: > 250 µg/mL | SI250 (selective toxicity at 250 µg/mL) [8]: 1.1 | IC50 [8]: > 250 µg/mL | IC50 [9]: > 250 µg/mL | IC50 [10]: > 250 µg/mL | SI250 (selective toxicity at 250 µg/mL) [10]: one | viability at 24 h [11]: 60 to 70% | viability at 24 h [12]: 100%
